Common to all, as to assay type: cell-based, human
For assay [1], the system named is HL-60-S cells. Briefly: DNA synthesis in HL-60-S cells. Particulars: for IC50: read-out: IC50, inhibition of DNA synthesis in HL-60-S cells.
Assay [2] concerns HL-60-RV cells. Briefly: DNA cleavage in HL-60-RV cells. Particulars: 24 h. As for the experimental part: FIG. 23. Comparison of the concentration-dependent inductions of DNA cleavage by DAU (open symbols in A) and TT2 (closed symbols in B) at 24 h in HL-60-S (circles), HL-60-RV (squares) and HL-60-R8 (triangles) cells containing ^3H-prelabeled DNA in vitro. Results are expressed as [cpm in supernatant/cpm in supernatant+pellet]×100 at 24 h. For untreated controls (14.7±1.7% DNA fragmentation, striped areas), the supernatant (DNA fragments) is 12,815±1,358 cpm and the pellet (intact DNA) is 74,406±9,078 cpm.
The MDR HL-60-RV and HL-60-R8 cells were developed in Melvin S. Center's laboratory (Kansas State University) and similarly maintained in RPMI 1640 medium in the absence of drugs (Marsh W, et al, Cancer Res 46: 4053-4057, 1986; McGrath T et al, and Center M S: Biochem Biophys Res Commun 145: 1171-1176, 1987; Marsh W and Center M S: Cancer Res 47: 5080-5086, 1987; McGrath T, et al, Biochem Pharmacol 38: 3611-3619, 1989; Marquardt D, et al, Cancer Res 50: 1426-1430, 1990; Marquardt D and Center M S: J Natl Cancer Inst 83: 1089-1109, 1991; Krishnamachary N and Center M S; Cancer Res 53: 3658-3661, 1993). Every 4 weeks, these HL-60-RV and HL-60-R8 sublines were exposed to 41 nM DAU for 48 h to stabilize their MDR phenotype. […] RFs were determined by dividing the IC50 of the MDR cells by that of the sensitive WT parent cell line. […]

In assay [3] the test system is HL-60-RV cells. Nature of the assay: HL-60-RV (MDR) cell proliferation assay. Particulars: for IC50: read-out: IC50, inhibition of HL-60-RV cell proliferation. The source says:
(§1) The MDR HL-60-RV and HL-60-R8 cells were developed in Melvin S. Center's laboratory (Kansas State University) and similarly maintained in RPMI 1640 medium in the absence of drugs (Marsh W, et al, Cancer Res 46: 4053-4057, 1986; McGrath T et al, and Center M S: Biochem Biophys Res Commun 145: 1171-1176, 1987; Marsh W and Center M S: Cancer Res 47: 5080-5086, 1987; McGrath T, et al, Biochem Pharmacol 38: 3611-3619, 1989; Marquardt D, et al, Cancer Res 50: 1426-1430, 1990; Marquardt D and Center M S: J Natl Cancer Inst 83: 1089-1109, 1991; Krishnamachary N and Center M S; Cancer Res 53: 3658-3661, 1993). Every 4 weeks, these HL-60-RV and HL-60-R8 sublines were exposed to 41 nM DAU for 48 h to stabilize their MDR phenotype. This concentration of DAU, which is not cytotoxic to MDR HL-60 sublines, was removed from the culture medium at least 48 h before experimentation. […] RFs were determined by dividing the IC50 of the MDR cells by that of the sensitive WT parent cell line.

Assay [4] has as its system HL-60-RV cells. Briefly: Nucleoside transport in HL-60-RV cells. Particulars: for IC50: 15-min preincubation, 30 s.
Excerpt: FIG. 15. Comparison of the concentration-dependent inhibitions of the cellular transport of purine (A) and pyrimidine (B) nucleosides by DAU (open symbols) and TT2 (closed symbols) in HL-60-S (circles), HL-60-RV (squares) and HL-60-R8 (triangles) cells in vitro. Results are expressed as % of ^3H-adenosine (26,032±2,239 cpm, 100±9%, striped area in A) and ^3H-thymidine (17,934±1,398 cpm, 100±8%, striped area in B) transported into vehicle-treated control cells over 30 s.
as §1
L1210 cells (about 1.5×10^6 cells/0.5 ml) were preincubated for 15 min at 37° C. in the presence or absence of TTs and then exposed to 1 μCi of ^3H-thymidine for only 30 sec to assess the cellular uptake of nucleoside over such very short period of time. HL-60-S, HL-60-RV and HL-60-R8 cells (1.2×10^6 cells/0.5 ml) were preincubated for 15 min at 37° C. in the presence or absence (control) of drugs and then exposed to 1 μCi of [2,8-^3H]adenosine (30 Ci/mmol; American Radiolabeled Chemicals, St. Louis, Mo.) or [methyl-^3H]thymidine (50 Ci/mmol; Amersham, Arlington Heights, Ill.) for only 30 s to, respectively, assess the cellular uptake of purine and pyrimidine nucleosides over such very short period of time Reactions were diluted with 2 ml of ice-cold Ca^2+/Mg^2+-free Dulbecco's phosphate buffered saline (PBS) and the unincorporated radiolabel was removed by centrifugation at 200×g for 10 min. […] Cell lysates were mixed with 9 ml of Bio-Safe II (Researeh Products International) and counted to estimate the cellular uptake of ^3H-thymidine. Drug inhibition was expressed as % of ^3H-thymidine or ^3H-adenosine transported into vehicle-treated control cells over similar 30-sec period.

Assay [5] relates to HL-60-R8 cells. Nature of the assay: DNA synthesis in HL-60-R8 cells. Conditions: read-out: IC50, inhibition of DNA synthesis in HL-60-R8 cells.
In assay [6] the test system is HL-60-S cells. Briefly: HL-60-S cell proliferation assay.
Excerpt: as §1

[7] abbreviates: HL-60-RV and HL-60-R8 vs HL-60-S.
The mark [8] stands for this setting: HL-60-RV and HL-60-R8 vs HL-60-S, day 2.
[9] abbreviates: HL-60-RV and HL-60-R8 vs HL-60-S, day 4.

Read-outs that look alike come from different tables or passages of the source.

Regarding `COc1cccc2c1C(=O)c1c(O)c3c(c(O)c1C2=O)C[C@@](O)(C(C)=O)C[C@@H]3O[C@H]1C[C@H](N)[C@H](O)[C@H](C)O1` [DAU, daunomycin, reference compound], the IC50 in assay [1] (Homo sapiens) was determined as 210 nM; in assay [3] (Homo sapiens, 48 h), 500 nM; in assay [3] (Homo sapiens, 96 h), 275 nM; in assay [5] (Homo sapiens) it was 1700 nM; in assay [6] (Homo sapiens, 48 h, read-out: IC50, inhibition of HL-60-S cell proliferation) it was 14 nM; in assay [6] (Homo sapiens, 96 h, read-out: IC50, inhibition of HL-60-S cell proliferation) it was 9 nM. The “reduction of the peak of maximal DNA cleavage relative to HL-60-S cells” value in assay [2] was 79%. The “times less effective as cytostatic agent in MDR than in WT HL-60 cells” value in assay [3] (setting [7]) is recorded as “about 30 times”. Moreover, the “RFs, cell proliferation (IC50 of MDR cells / IC50 of WT HL-60-S)” value in assay [3] (setting [8]) was 22.9-35.7; in assay [3] (setting [9]) it was 25.0-30.6. Also, the “effect on nucleoside transport in the two MDR sublines” value in assay [4] (HL-60-RV and HL-60-R8) is on record as “unable”.

As to `COC1=CC(=O)C2=C(C1=O)C1C3=C(C(=O)C=CC3=O)C2c2ccccc21` (stereo not drawn) [TT2, 2-Methoxy-9,10-dihydro-9,10-[1′,2′]benzenoanthracene-1,4,5,8-tetraone], in assay [1] (HL-60-S), the “times TT2 inhibits DNA synthesis less effectively than DAU” value stood at 9 times. Also, the IC50 in assay [1] was 1800 nM; in assay [3] (day 2), 500 nM; in assay [3] (day 4) it was 260 nM; in assay [4] (purine nucleoside, read-out: IC50, cellular transport of 3H-adenosine in HL-60-RV cells), 3200 nM; in assay [4] (pyrimidine nucleoside, read-out: IC50, cellular transport of 3H-thymidine in HL-60-RV cells) it was 2000 nM; in assay [5], 2100 nM. For the same molecule, the IC50 was 260 to 300 nM in assay [6] (HL-60-S, HL-60-RV and HL-60-R8, day 4, read-out: IC50 values, inhibition of cell proliferation, range over the three lines); 400 nM in assay [6] (day 2, read-out: IC50, inhibition of HL-60-S cell proliferation); 300 nM in assay [6] (day 4, read-out: IC50, inhibition of HL-60-S cell proliferation). In assay [2], the “reduction of the peak of maximal DNA cleavage relative to HL-60-S cells” value came to 39%. Also, in assay [3] (setting [7]), the “RFs, tumor cell growth, viability and DNA synthesis together” value is given as 0.9-1.5. Moreover, the “RFs, cell proliferation (IC50 of MDR cells / IC50 of WT HL-60-S)” value in assay [3] (setting [8]) is 0.9-1.3; in assay [3] (setting [9]) it was 0.9-1.0. Moreover, the “RFs, nucleoside transport” value in assay [4] (HL-60-RV and HL-60-R8 vs HL-60-S, adenosine and thymidine) was 1.0-1.2. In assay [6] (HL-60-S), the “times TT2 inhibits tumor cell growth less effectively than DAU” value is 33 times.
